Data as given in ChEMBL document CHEMBL5096216, “Rational Design, Synthesis, and Biological Evaluation of Novel S1PR2 Antagonists for Reversing 5-FU-Resistance in Colorectal Cancer” (J Med Chem, 2022).
pIC50, pKd: −log10 of the molar value. The source made the active and inactive calls. The calls are words filed in the database; no cut-off is given here.

Legend:
SW620/5-FU [1] = assay: Induction of apoptosis in human SW620/5-FU cells assessed as late apoptotic cells at 10 uM incubated for 24 hrs in presence of 5-FU by Annexin-V/PI staining based flow cytometry assay (reference value: 2.97%); assay type: functional
SW620/5-FU [2] = assay: cells; conditions: Homo sapiens, 48 h
SW620/5-FU [3] = assay: Induction of apoptosis in human SW620/5-FU cells assessed as early apoptotic cells at 20 uM incubated for 24 hrs by Annexin-V/PI staining based flow cytometry assay (reference value: 2.73%); assay type: functional
HT-29 [4] = assay: Downregulation of JMJD3 expression in 5-FU resistant human HT-29 cells incubated for 12 hrs by Western blot analysis; assay type: functional, cell-based; conditions: dose 2.5-20 µM, DDE = dose-dependent effect
Mus musculus [5] = assay: In vivo inhibition of tumor DPD expression in human SW620/5-FU cells xenografted in nude mouse at 1 to 10 mg/kg/day by Western blot analysis; assay type: functional, organism-based; conditions: dose 1-10 mg/kg/day
[6] = molecular target: T1, Sphingosine 1-phosphate receptor 4 (Homo sapiens, UniProt O95977); assay: Binding affinity to S1PR4 (unknown origin) assessed as dissociation constant by surface plasmon resonance analysis
T1 sequence (O95977 whole entry): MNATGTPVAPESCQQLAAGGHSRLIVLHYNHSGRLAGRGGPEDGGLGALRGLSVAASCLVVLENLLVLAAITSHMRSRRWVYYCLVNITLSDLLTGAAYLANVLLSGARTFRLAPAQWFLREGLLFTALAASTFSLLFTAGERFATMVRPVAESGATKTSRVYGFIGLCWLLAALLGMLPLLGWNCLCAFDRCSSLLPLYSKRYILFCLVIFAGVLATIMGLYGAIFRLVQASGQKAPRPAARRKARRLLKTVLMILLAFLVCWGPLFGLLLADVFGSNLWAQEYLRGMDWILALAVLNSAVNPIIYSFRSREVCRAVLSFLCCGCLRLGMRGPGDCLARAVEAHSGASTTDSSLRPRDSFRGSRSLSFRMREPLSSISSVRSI

SW620/5-FU [7] = assay: Antitumor activity against human SW620/5-FU cells xenografted in nude mouse assessed as tumor volume at 1 mg/kg/day, iv measured on day 1 in presence of 5-FU (reference value: 105 +/- 14 mm3); assay type: functional; conditions: time 1 day
HCT-116 [8] = assay: Reversal of 5-FU resistance in human HCT-116 cells overexpressing DPD assessed as fold reduction in 5-Fluorouracil IC50 at 5 uM incubated for 48 hrs; assay type: functional
HCT-116 [9] = assay: Reversal of 5-FU resistance in human HCT-116 cells overexpressing DPD assessed as reduction in cell viability incubated for 48 hrs in presence of 5-FU by MTT assay; assay type: functional, cell-based; conditions: HCT-116, 48 h
SW620/5-FU [10] = assay: Induction of apoptosis in human SW620/5-FU cells assessed as early apoptotic cells at 20 uM incubated for 24 hrs in presence of 5-FU by Annexin-V/PI staining based flow cytometry assay (reference value: 2.73%); assay type: functional
[11] = Toxicity in nude mouse xenografted with human SW620/5-FU cells assessed as morphological changes in heart at 1 to 10 mg/kg/day, iv by hematoxylin-eosin staining based analysis; assay type: organism-based; conditions: in vivo, dose 1-10 mg/kg/day
[12] = molecular target: Sphingosine 1-phosphate receptor 2 (Homo sapiens, UniProt O95136); assay: Binding affinity to S1PR2 (unknown origin) assessed as dissociation constant by surface plasmon resonance analysis
Sphingosine 1-phosphate receptor 2, sequence (O95136 whole entry): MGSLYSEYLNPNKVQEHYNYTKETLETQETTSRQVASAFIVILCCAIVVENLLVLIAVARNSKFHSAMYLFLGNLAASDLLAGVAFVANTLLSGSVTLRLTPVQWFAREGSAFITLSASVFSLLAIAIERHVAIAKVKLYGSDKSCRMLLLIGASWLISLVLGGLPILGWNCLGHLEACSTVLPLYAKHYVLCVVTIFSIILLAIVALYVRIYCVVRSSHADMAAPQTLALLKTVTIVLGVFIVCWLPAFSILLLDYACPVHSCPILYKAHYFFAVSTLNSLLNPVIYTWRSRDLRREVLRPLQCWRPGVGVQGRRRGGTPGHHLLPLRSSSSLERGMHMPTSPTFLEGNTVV

SW620/5-FU [13] = assay: Antitumor activity against human SW620/5-FU cells xenografted in nude mouse assessed as tumor wight at 5 mg/kg/day, iv in presence of 5-FU (reference value: 1.3 +/-0.6 g); assay type: functional
SW620/5-FU [14] = assay: Induction of apoptosis in human SW620/5-FU cells assessed as early apoptotic cells at 10 uM incubated for 24 hrs by Annexin-V/PI staining based flow cytometry assay (reference value: 2.73%); assay type: functional
HT-29 [15] = assay: Reversal of 5-FU resistance in human HT-29 cells assessed as fold reduction in 5-Fluorouracil IC50 at 2 uM incubated for 48 hrs; assay type: functional
SW620/5-FU [16] = assay: Downregulation of DPD expression in human SW620/5-FU cells incubated for 12 hrs by Western blot analysis; assay type: functional, cell-based; conditions: dose 2.5-20 µM, DDE = dose-dependent effect
SW620/5-FU [17] = assay: cells; conditions: Homo sapiens, 48 h; remark: listed apart in the source
SW620/5-FU [18] = assay: Induction of apoptosis in human SW620/5-FU cells assessed as late apoptotic cells at 10 uM incubated for 24 hrs by Annexin-V/PI staining based flow cytometry assay (reference value: 2.97%); assay type: functional
[19] = Metabolic stability in rat liver homogenate assessed as compound remaining at 1 mg/ml measured after 48 hrs by HPLC analysis; assay type: ADME, tissue-based; conditions: read-out: Stability
SW620/5-FU [20] = assay: Antitumor activity against human SW620/5-FU cells xenografted in nude mouse assessed as tumor volume at 5 mg/kg/day, iv measured on day 15 in presence of 5-FU (reference value: 1991 +/- 469 mm3); assay type: functional; conditions: time 15 day
SW620/5-FU [21] = assay: Induction of apoptosis in human SW620/5-FU cells assessed as necrotic cells at 10 uM incubated for 24 hrs in presence of 5-FU by Annexin-V/PI staining based flow cytometry assay (reference value: 0%); assay type: functional
Mus musculus [22] = assay: In vivo inhibition of liver DPD expression in human SW620/5-FU cells xenografted in nude mouse at 1 to 10 mg/kg/day by Western blot analysis; assay type: functional, organism-based; conditions: dose 1-10 mg/kg/day
SW620/5-FU [23] = assay: Induction of apoptosis in human SW620/5-FU cells at 20 to 40 uM in presence of 5-FU by Hochest33342 staining based assay; assay type: functional, cell-based; conditions: dose 20-40 µM
[24] = molecular target: Sphingosine 1-phosphate receptor 3 (Homo sapiens, UniProt Q99500); assay: Binding affinity to S1PR3 (unknown origin) assessed as dissociation constant by surface plasmon resonance analysis
Sphingosine 1-phosphate receptor 3, sequence (Q99500 whole entry): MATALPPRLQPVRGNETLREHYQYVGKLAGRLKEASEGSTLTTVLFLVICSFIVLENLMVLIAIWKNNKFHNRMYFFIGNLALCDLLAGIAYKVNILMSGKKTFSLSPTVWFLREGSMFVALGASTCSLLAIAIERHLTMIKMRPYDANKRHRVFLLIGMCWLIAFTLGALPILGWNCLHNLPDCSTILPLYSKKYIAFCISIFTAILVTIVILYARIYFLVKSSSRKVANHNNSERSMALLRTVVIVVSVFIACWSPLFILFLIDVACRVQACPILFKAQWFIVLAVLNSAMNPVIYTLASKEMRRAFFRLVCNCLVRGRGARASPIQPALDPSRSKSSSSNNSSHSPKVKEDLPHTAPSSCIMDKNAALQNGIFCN

[25] = Metabolic stability in rat plasma assessed as half life at 1 mg/ml incubated for 48 hrs by HPLC analysis; assay type: ADME, cell-free
SW620/5-FU [26] = assay: Inhibition of FBAL stimulated DPD expression in human SW620/5-FU cells at 10 uM incubated for 72 hrs by Western blot analysis; assay type: functional, cell-based
SW620/5-FU [27] = assay: Reversal of 5-FU resistance in human SW620/5-FU cells assessed as reduction in cell viability incubated for 48 hrs in presence of 5-FU by MTT assay; assay type: functional, cell-based
[28] = Metabolic stability in human plasma assessed as half life at 1 mg/ml incubated for 48 hrs by HPLC analysis; assay type: ADME, cell-free
SW620/5-FU [29] = assay: Induction of apoptosis in human SW620/5-FU cells assessed as viable cells at 20 uM incubated for 24 hrs in presence of 5-FU by Annexin-V/PI staining based flow cytometry assay (reference value: 94.3%); assay type: functional; conditions: read-out: Activity
HT-29 [30] = assay: Antiproliferative activity against human HT-29 cells assessed as reduction in cell viability incubated for 48 hrs by MTT assay; assay type: functional, cell-based; conditions: HT-29, 48 h
SW620/5-FU [31] = assay: Antiproliferative activity against human SW620/5-FU cells assessed as reduction in cell viability incubated for 48 hrs by MTT assay; assay type: functional, cell-based
SW620/5-FU [32] = assay: Antitumor activity against human SW620/5-FU cells xenografted in nude mouse assessed as tumor volume at 1 mg/kg/day, iv measured on day 15 in presence of 5-FU (reference value: 1991 +/- 469 mm3); assay type: functional; conditions: time 15 day

pIC50 (SW620/5-FU [2]): 4.43 | pKd [6]: < 7.00 | pIC50 (HCT-116 [9]): 5.19 | pKd [12]: 9.14 | pIC50 (SW620/5-FU [17]): 4.75 | remaining at 48 h, 1 mg/ml [19]: 68.9% | pKd [24]: < 7.00 | half-life at 1 mg/ml [25]: > 48 h | pIC50 (SW620/5-FU [27]): 5.70 | half-life at 1 mg/ml [28]: > 48 h | pIC50 (HT-29 [30]): < 4.00 | pIC50 (SW620/5-FU [31]): < 4.00
Compound: CCC(CC)CN1CCN(C(=O)Nc2cc(Oc3ccc(F)cc3)cc(Oc3ccc(C(=O)NC)cc3)c2)CC1
Activity (SW620/5-FU [1]): 7.76% | Activity (SW620/5-FU [3]): 3.76% | Activity (HT-29 [4]): Dde | inhibition (Mus musculus [5]): Active | Activity (SW620/5-FU [7]): 104 mm3 | fold change (FC) (HCT-116 [8]): 41 | Activity (SW620/5-FU [10]): 28.6% | Activity [11]: Non-Toxic | Activity (SW620/5-FU [13]): 0.5 g | Activity (SW620/5-FU [14]): 3.41% | fold change (FC) (HT-29 [15]): 66 | Activity (SW620/5-FU [16]): Dde | Activity (SW620/5-FU [18]): 2.76% | Activity (SW620/5-FU [20]): 662 mm3 | Activity (SW620/5-FU [21]): 0.17% | inhibition (Mus musculus [22]): Active | Activity (SW620/5-FU [23]): Active | inhibition (SW620/5-FU [26]): Active | viability at 20 µM (SW620/5-FU [29]): 64.2% | Activity (SW620/5-FU [32]): 1006 mm3
